Test results reported in publication PMC7391726, “Fatty acid mimetic PBI-4547 restores metabolic homeostasis via GPR84 in mice with non-alcoholic fatty liver disease” (Scientific Reports, 2020).

How the values were obtained:
PPARδ = target: T1, PPARδ (Homo sapiens, UniProt Q03181); assay: Cell-based GAL4 transactivation assay in HEK293 cells, PPARδ LBD; details: compared to the control agonist GW0742
T1 construct: PPARδ (S139–Y440); expressed in transfected cells; host or cells: HEK293
T1 sequence (Q03181 139-441 limits assumed): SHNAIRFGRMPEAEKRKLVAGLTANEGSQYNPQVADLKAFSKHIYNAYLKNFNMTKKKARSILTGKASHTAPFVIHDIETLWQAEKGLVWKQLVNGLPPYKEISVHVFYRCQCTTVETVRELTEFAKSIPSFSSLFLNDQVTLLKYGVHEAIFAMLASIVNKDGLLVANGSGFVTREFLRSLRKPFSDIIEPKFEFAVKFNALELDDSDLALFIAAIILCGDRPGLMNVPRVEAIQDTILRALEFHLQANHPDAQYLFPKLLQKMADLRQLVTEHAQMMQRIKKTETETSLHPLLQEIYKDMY
Excerpt: (§1) To determine the transcriptional activity of PBI-4547, a cell-based GAL4 transactivation assay in HEK293 cells transfected with either PPARα, PPARδ, or PPARγ LBD was used. […] However, PBI-4547 only partially activated PPARγ transcriptional activity, with a relative maximal efficacy of 38% of the control agonist rosiglitazone.
(§2) Generation of the Gαi2, Gαq, and GPR40/β-arrestin-2 BRET biosensors have been described previously. A plasmid encoding the human GPR120-L (long isoform) cDNA was obtained from R&D Systems. GPR120-S (short isoform) was generated by replacing the BglII-BsgI fragment from GPR120-L by a gBlock gene fragment (Integrated DNA Technologies, Coralville, IA) lacking the DNA sequence corresponding to the extra 16 amino acids found in the third intracellular loop of the long form. The GPR120-GFP10 construct was generated by inserting PCR-amplified GPR120-S (without its stop codon) in place of GPR40 in the GPR40-GFP10 plasmid. […]
(§3) HEK293 cells were co-transfected with pGL4.35[luc2P/9XGAL4UAS/Hygro] and GAL4-PPAR-Rluc plasmids, and after 24 h of incubation were treated with compounds for 24 h. Luciferase activity was determined with the Dual Glo luciferase assay (Promega). Firefly luminescence was normalized to the constitutively expressed Renilla luminescence, and results expressed as fold induction of vehicle control.

PPARγ = target: T2, PPARγ (Homo sapiens, UniProt P37231); assay: Cell-based GAL4 transactivation assay in HEK293 cells, PPARγ LBD
T2 construct: PPARγ (S176–Y477); expressed in transfected cells; host or cells: HEK293
T2 sequence (P37231 176-477 isoform P37231-2): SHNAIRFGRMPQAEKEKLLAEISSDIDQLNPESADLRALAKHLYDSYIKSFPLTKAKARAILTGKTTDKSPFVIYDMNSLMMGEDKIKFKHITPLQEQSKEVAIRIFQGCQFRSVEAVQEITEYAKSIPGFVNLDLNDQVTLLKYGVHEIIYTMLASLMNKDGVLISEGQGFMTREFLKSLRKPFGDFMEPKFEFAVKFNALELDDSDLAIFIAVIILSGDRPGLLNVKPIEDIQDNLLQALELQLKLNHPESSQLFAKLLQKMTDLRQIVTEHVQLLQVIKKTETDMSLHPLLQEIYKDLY
Excerpt: as §1, §2, §3

HepG2 hepatocytes = assay: 14C-palmitate β-oxidation rate in HepG2 hepatocytes; format: cell-based
Description: Moreover, hepatic expression of several genes involved in glucose metabolism including Pklr (pyruvate kinase L/R), G6pc (glucose-6-phosphatase, catalytic) and Slc2a2 (Glut2) was normalized by PBI-4547 (Fig. 4B). […] To test this hypothesis, mitochondrial respiration in HepG2 hepatocytes was measured (Fig. 4C). […] However, it did decrease maximal respiration and ATP production, in agreement with the metabolomics results.
Figure 4 Effects of PBI-4547 on glucose and FA metabolism in liver. (A) Relative gene expression levels of glucose and FA-related metabolism in liver from STD, HFD and HFD + PBI-4547 mice. Data are presented as geometric mean ± SEM (n ≥ 6 per group, one-way ANOVA with Dunnett’s multicomparison test vs HFD group). (B) 1H-NMR metabolic profiling in liver tissues. (C) Oxygen Consumption Rate (OCR) and Extracellular Acidifcation Rate (ECAR) in HepG2 hepatocytes. Measurements of basal respiration, maximal respiration, ATP production and proton leak in HepG2 hepatocytes treated or not with PBI-4547. (D) Oxidation rate of ^14C-palmitate in HepG2 hepatocytes treated or not with PBI-4547. Data are presented as mean ± SEM (n = 3, Student t test Ctrl vs PBI-4547). See also Fig. S2.

ob/ob mice = assay: ob/ob leptin-deficient genetic mouse model of metabolic syndrome; format: in vivo
Excerpt: We next sought to confirm our above findings obtained from the diet-induced model of obesity by using the ob/ob leptin-deficient genetic mouse model of metabolic syndrome. […] Additionally, the mRNA expression profiles of glucose- and FA-related genes in liver (Fig. S4D,E) and WAT (Fig. S5) also differed between pioglitazone- and PBI-4547-treated mice.

Compound: CCCCCc1cc(CCCCC)cc(CC(=O)[O-])c1.[Na+] [PBI-4547, 2-[3,5-dipentylphenyl]acetate sodium salt]
- PPARδ transcriptional activity (PPARδ): very weak
- EC50 (PPARγ; HEK293, 24 h, read-out: EC50, PPARγ transcriptional activity): 3.6 µM
- Emax (PPARγ; HEK293, of the control agonist rosiglitazone, read-out: relative maximal efficacy, PPARγ transcriptional activity): 38%
- oxidation of 14C-palmitate (β-oxidation rate) (HepG2 hepatocytes): dose-dependently increased
- bodyweight (ob/ob mice): significantly reduced
- prevention of clinical manifestations of fatty liver disease (liver histology) (ob/ob mice): more effective than pioglitazone
